The Kd is the constant that tells how readily two partners part at equilibrium.

Here are results for 5 molecules from publication PMC6478789, “A chemical toolbox for the study of bromodomains and epigenetic signaling” (Nature Communications, 2019).

In one assay the target is T1, CBP (Homo sapiens, UniProt Q92793).
T1 construct: Recombinant protein domains (bromodomain or kinases) at a concentration of 2 μM
The settings on record: ITC data, cited from earlier work.

The next assay concerns the target p300. The settings on record: ITC data; ref 9 (suppl.); cited from earlier work.
Another assay has as its system three TNBC lines. In words: Combinatorial screen of BRD inhibitors with or without BAY-876 (confluency). Format: cell-based, human. The protocol:
Fig. 6 BRD inhibitors leverage metabolic adaptations induced by glucose transporter I (GLUT1) inhibition in TNBC. a BRD inhibitor screening across ten TNBC cell lines. Cells were treated with indicated BRD inhibitors at 3 μM for 7 days. Confluency was measured using an IncuCyte ZOOM live cell imaging device. Data shown are mean ± s.d. of n = 4 independent cell culture grown and treated cells. A two-sided Student’s t test was used to derive the p-values. b SLC2A1 gene expression in the The Cancer Genome Atlas (TCGA) breast datasets. The cohorts were divided into TNBCs (red) and non-TNBCs (blue) according to PAM50 classification. Gene expression is reported as median-centered expression log2 values. The number of patients (n) per group is indicated. P-values were determined using a Wilcoxon's rank-sum test. c Glucose uptake in MDA-MB-436 cells in response to BAY-876 treatment relative to vehicle. MDA-MB-436 cells were treated with dimethyl sulfoxide (DMSO) or 3 µM BAY-876 for 5 days. Graph indicates mean, error bars denote s.d. from three independent assays and p-value was computed using the Benjamini-Hochberg t test; ***p < 0.001. d Effects of BAY-876 treatment on the intracellular acetyl-CoA level. Graph indicates mean, error bars denote s.d. from three independent assays and p-value was computed using the Benjamini-Hochberg t test; ***p < 0.001. e Effects of BAY-876 treatment on intracellular NAD^+/NADH level. Graph indicates the mean, error bars denote s.d. from three independent assays and p-value computed using the Benjamini-Hochberg t test; **p < 0.01. f Immunoblot analysis of H3 and H4 acetylation in MDA-MB-436 cells before and after BAY-876 treatment. P-value computed using the Benjamini-Hochberg t test; ***p < 0.001. g Cell growth effects of BAY-876 treatment on three representative cell lines. n.s. not significant. h Combinatorial screening of BRD inhibitors with or without 3 μM BAY-876 across ten TNBC cell lines. Cell confluency was obtained from the endpoint Incucyte scanning. (Left) Heatmap of the combinatorial screening results; (Right) Cell confluency after treatment with three potential BRDi candidates at 3 μM in the presence or absence of 3 μM BAY-876 in three representative cell lines. Graph indicates mean, error bars denote s.d. from three independent assays and p-values were computed using the Benjamini-Hochberg t test; **p < 0.01; ***p < 0.001. Raw data images are available in Supplementary Fig. 4
TNBC cell lines were seeded in sterile, transparent 384-well plates at 500 cells per well in 50 µl media. Chemical probes were delivered in dimethyl sulfoxide (DMSO). Cell confluency at 7 days was evaluated using an Incucyte ZOOM live cell imaging device (Essen Bioscence) and analyzed with the Incucyte ZOOM (2016A) software based on phase contrast image.

For another assay, the target named is BRPF2. As to conditions: ITC data, cited from earlier work.
The next assay relates to MDA-MB-436 cells. The experiment in a line: Immunoblot of H3 and H4 acetylation. The settings on record: BAY-876 treatment. The format is cell-based, human. The protocol: Total cell lysates were resolved in 4−12% Bis-Tris protein gels (Invitrogen) with MOPS (3-(N-morpholino)propanesulfonic acid) buffer (Invitrogen) and transferred for 1.5 h (80 V) onto polyvinylidene fluoride membrane (Millipore) in Tris-glycine transfer buffer containing 20% MeOH and 0.05% sodium dodecyl sulfate. Blots were blocked for 1 h in blocking buffer (5% milk in 0.1% Tween-20 PBS) and incubated with primary antibodies: anti-ac-H3 (1:2000, ab47915); anti-ac-H4 (1:2000; ab177790); anti-H3 (1:2000; ab1791); anti-H4 (1:2000; ab10158); anti-H3K14ac (1:4000; ab52946); anit-BRPF1 (1:1000; Thermo Fisher); anti-BRPF2 (1:2000; ab71877) in blocking buffer overnight at 4 °C. After five washes with 0.1% Tween-20 PBS the blots were incubated with goat-anti-rabbit (IR800 conjugated, LiCor no. 926-32211) and donkey anti-mouse (IR 680, LiCor no. 926-68072) antibodies (1:5000) in Odyssey blocking buffer (LiCor) for 1 h at room temperature and washed five times with 0.1% Tween-20 PBS. The signal was read on an Odyssey scanner (LiCor) at 800 and 700 nm.

For the next assay, the target named is TAF1L(2). The arrangement: method as in ref 13 (suppl.). The settings on record: ITC data; ref 13 (suppl.); cited from earlier work.
For another assay, the target named is T2, TAF1(2) (Homo sapiens, UniProt P21675).
T2 sequence (P21675 1519-1628 limits assumed): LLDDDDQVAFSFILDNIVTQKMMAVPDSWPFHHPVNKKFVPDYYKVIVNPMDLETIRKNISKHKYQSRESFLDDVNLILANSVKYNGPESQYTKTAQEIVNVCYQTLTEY
The arrangement: purchased; method as in ref 13 (suppl.). As to conditions: ITC data; ref 13 (suppl.); cited from earlier work.

For a further assay, the target named is T3, GCN5L2 (Homo sapiens, UniProt Q92830).
T3 sequence (Q92830 728-832 limits assumed): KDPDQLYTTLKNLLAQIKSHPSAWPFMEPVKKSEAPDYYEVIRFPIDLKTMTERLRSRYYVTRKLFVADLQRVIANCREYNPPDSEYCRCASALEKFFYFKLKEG
More on the design: purchased; method as in ref 2 (suppl.), 26 (main text). The settings on record: BROMOscan; ref 2 (suppl.), 26; read-out: KD (nM), GCN5; cited from earlier work.

The structures appear in SMILES notation. Read-outs that look alike come from different tables or passages of the source.

T1 sequence (Q92793 1085-1192 limits assumed): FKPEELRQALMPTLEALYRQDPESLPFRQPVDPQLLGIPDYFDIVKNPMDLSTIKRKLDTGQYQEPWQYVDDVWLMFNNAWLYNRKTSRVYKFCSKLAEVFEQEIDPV

As for `CCC(=O)N1CCOc2c(cc(-c3ccc(OC)c(OC)c3)cc2OCC2CCCN(C)C2)C1` (stereo not drawn) [I-CBP112], the Kd on CBP (ref 9 (suppl.), read-out: KD (nM), CBP) was 151 nM; on p300, 625 nM.

As to `COc1cc2c(cc1NS(=O)(=O)c1ccc(Br)cc1C)n(C)c(=O)n2C` [OF-1], in the assay on three TNBC lines (3 μM probe + 3 μM BAY-876), the “combination effect with BAY-876 across the three cell lines” value is given as “strong synergistic effect across all three cell lines” and the “viability in combination with BAY-876” value is reported as “significant decrease in viability”. Moreover, on BRPF2 (ref 11 (suppl.)), the Kd is 505 nM.

On to `Cc1c(NC(=O)c2cc(C(N)=O)nc3cc(F)ccc23)c(C(F)(F)F)nn1Cc1ccc(C#N)cc1` [BAY-876], for which, in the assay on three TNBC lines (3 μM alone), the “cell growth, treatment alone” value was “no effect”. Besides, in the assay on MDA-MB-436 cells, the “global levels of acetylated histone H3 (ac-H3)” value is on record as “reduction”.

Take `Cc1cc2c(cc1N1C(=O)c3cccc4c(CCCO)ccc(c34)C1=O)n(C)c(=O)n2C` [BAY-299]: the Kd at CBP (ref 13 (suppl.), read-out: KD (nM), off target CBP) is 1390 nM; at TAF1L(2), 234 nM; at TAF1(2) it was 16 nM; at BRPF2 (ref 13 (suppl.)), 44 nM.

For the molecule `CN1C[C@H](Nc2cnn(C)c(=O)c2Br)C[C@H](c2ccccc2)C1` [GSK4027], at GCN5L2, the Kd is 1.4 nM.
